Experimental data taken from ChEMBL document CHEMBL1201862, “PubChem BioAssay data set” (2004).
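Briefly, cells in 96-well plates were exposed to five compound concentrations for 48 h, and endpoints were estimated by linear interpolation. Abbreviation: GI50, concentration required for 50% inhibition of growth.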 Active and inactive are the calls of the source. No stated cut-off is given here; in the data, active = GI50 up to about 1.1 µM and inactive = higher.

Columns and labels:
Experiment in all cases: DTP human tumour cell line panel, 48 h
MOLT-4 = tested on: MOLT-4
HT-29 = tested on: HT-29
UACC-62 = tested on: UACC-62
NCI-H522 = tested on: NCI-H522
TK-10 = tested on: TK-10
LOX IMVI = tested on: LOX IMVI
CCRF-CEM = tested on: CCRF-CEM
OVCAR-4 = tested on: OVCAR-4
COLO 205 = tested on: COLO 205
HOP-62 = tested on: HOP-62
786-0 = tested on: 786-0
SF-268 = tested on: SF-268
SNB-78 = tested on: SNB-78
SF-295 = tested on: SF-295
EKVX = tested on: EKVX
SK-MEL-28 = tested on: SK-MEL-28
M14 = tested on: M14
UO-31 = tested on: UO-31
HOP-92 = tested on: HOP-92
SR = tested on: SR

Measured: GI50

COCN1C(=O)C2CC(/C=C/C(N)=O)=CN2C(=O)c2ccccc21 (stereo not given)
inactive: MOLT-4 > 100 µM | HT-29 > 100 µM | UACC-62 > 100 µM | NCI-H522 > 100 µM | TK-10 > 100 µM | LOX IMVI > 100 µM | CCRF-CEM > 100 µM | OVCAR-4 > 100 µM | COLO 205 > 100 µM | HOP-62 > 100 µM | 786-0 > 100 µM | SF-268 > 100 µM | SNB-78 > 100 µM | SF-295 > 100 µM | EKVX > 100 µM | SK-MEL-28 > 100 µM | M14 > 100 µM

COc1ccc(-c2cc(C(=O)Nc3ccc(C)c(C)c3)nc(NC#N)n2)cc1
inactive: MOLT-4 > 100 µM | HT-29 > 100 µM | UACC-62 > 100 µM | NCI-H522 > 100 µM | TK-10 > 100 µM | LOX IMVI > 100 µM | CCRF-CEM > 100 µM | OVCAR-4 > 100 µM | COLO 205 > 100 µM | 786-0 > 100 µM | SF-268 > 100 µM | SNB-78 > 100 µM | UO-31 > 100 µM | EKVX > 100 µM | SK-MEL-28 > 100 µM | M14 > 100 µM

C/C(=N\[N+](C)(C)C)C(c1ccccc1)C1(c2ccccc2)C(c2ccccc2)=C1c1ccccc1 (stereo not given)
inactive: MOLT-4 > 100 µM | HOP-92 50.9 µM | HT-29 > 100 µM | UACC-62 > 100 µM | NCI-H522 > 100 µM | TK-10 90.2 µM | LOX IMVI > 100 µM | CCRF-CEM > 100 µM | OVCAR-4 > 100 µM | HOP-62 33 µM | 786-0 > 100 µM | SNB-78 50.5 µM | UO-31 53.1 µM | SF-295 41.1 µM | EKVX 40.7 µM | M14 > 100 µM

CCN(CC)CC1c2ccccc2C(CNc2ccccc2)N1C (stereo not given)
inactive: MOLT-4 80.4 µM | HOP-92 30.1 µM | UACC-62 > 100 µM | NCI-H522 > 100 µM | TK-10 > 100 µM | LOX IMVI > 100 µM | CCRF-CEM 83.8 µM | OVCAR-4 > 100 µM | COLO 205 > 100 µM | HOP-62 > 100 µM | 786-0 > 100 µM | SF-268 > 100 µM | SNB-78 > 100 µM | UO-31 > 100 µM | SF-295 > 100 µM | EKVX > 100 µM | SK-MEL-28 > 100 µM | M14 > 100 µM

Cn1cc(NC(=O)c2cc(NC(=O)CCCCCCC(=O)Nc3cc(C(=O)Nc4cc(C(=O)NCCC(=N)N)n(C)c4)n(C)c3)cn2C)cc1C(=O)NCCC(=N)N
inactive: HOP-92 > 100 µM | HT-29 73.6 µM | UACC-62 7.6 µM | TK-10 11.6 µM | LOX IMVI 5.75 µM | CCRF-CEM > 100 µM | OVCAR-4 36.1 µM | COLO 205 6.08 µM | 786-0 12.9 µM | SF-268 18.7 µM | SNB-78 24.2 µM | UO-31 39.4 µM | SF-295 25.9 µM | EKVX 16.7 µM | SK-MEL-28 4.22 µM | M14 16 µM

C=CCNC(=O)NC1=CSC2=NC(=O)C3(NN12)c1ccccc1-c1ccccc13
inactive: MOLT-4 > 10 µM | HOP-92 > 10 µM | HT-29 > 10 µM | UACC-62 > 10 µM | NCI-H522 > 10 µM | TK-10 > 10 µM | LOX IMVI > 10 µM | CCRF-CEM > 10 µM | OVCAR-4 > 10 µM | COLO 205 > 10 µM | HOP-62 > 10 µM | 786-0 > 10 µM | SF-268 > 10 µM | UO-31 8.24 µM | SF-295 > 10 µM | EKVX > 10 µM | SR > 10 µM | SK-MEL-28 > 10 µM | M14 > 10 µM

O=C(c1ccccc1)C(c1ccccc1)C1(O)C(=O)Nc2c(Cl)cc(Cl)cc21 (stereo not given)
inactive: MOLT-4 20.3 µM | HOP-92 18.9 µM | HT-29 23.9 µM | NCI-H522 16.6 µM | TK-10 18.3 µM | LOX IMVI 19.5 µM | CCRF-CEM 14 µM | OVCAR-4 13.7 µM | COLO 205 19.1 µM | HOP-62 > 10 µM | 786-0 14.7 µM | SF-268 21.2 µM | SNB-78 24.7 µM | UO-31 18.9 µM | SF-295 17.7 µM | EKVX 14.2 µM | SK-MEL-28 18.9 µM | M14 17.9 µM

N#Cc1c(N2CCCC2)ncn(Cc2ccccc2)c1=O
inactive: MOLT-4 > 100 µM | HOP-92 > 100 µM | HT-29 > 100 µM | UACC-62 > 100 µM | NCI-H522 > 100 µM | TK-10 > 100 µM | LOX IMVI > 100 µM | CCRF-CEM > 100 µM | OVCAR-4 > 100 µM | COLO 205 > 100 µM | HOP-62 > 100 µM | 786-0 > 100 µM | SF-268 > 100 µM | UO-31 > 100 µM | SF-295 > 100 µM | EKVX > 100 µM | SR > 100 µM | SK-MEL-28 > 100 µM | M14 > 100 µM

c1ccc2c3c([nH]c2c1)[C@H]1C2CCCCN2CN1CC3 (stereo not given in full)
inactive: MOLT-4 > 100 µM | HOP-92 > 100 µM | HT-29 81.7 µM | UACC-62 51.8 µM | NCI-H522 > 100 µM | TK-10 > 100 µM | CCRF-CEM > 100 µM | OVCAR-4 > 100 µM | COLO 205 > 100 µM | HOP-62 > 100 µM | 786-0 > 100 µM | SF-268 51.6 µM | SNB-78 94.4 µM | UO-31 > 100 µM | SF-295 > 100 µM | EKVX > 100 µM | SK-MEL-28 > 100 µM | M14 > 100 µM

O=C(CNc1ccc(Cl)cc1)Nn1c(-c2ccccc2)nc2ccccc2c1=O
inactive: MOLT-4 2.49 µM | HOP-92 5.07 µM | HT-29 6.27 µM | UACC-62 3.89 µM | NCI-H522 2.99 µM | TK-10 16.4 µM | LOX IMVI 1.3 µM | CCRF-CEM 2.04 µM | OVCAR-4 7.5 µM | COLO 205 6.82 µM | HOP-62 14.9 µM | 786-0 4.18 µM | SF-268 4.62 µM | UO-31 6.75 µM | SF-295 15.1 µM | EKVX 18.1 µM | SR 3.28 µM | SK-MEL-28 6.64 µM | M14 6.18 µM

N#CC(c1cc2c(cc1Br)OCO2)N1CCOCC1 (stereo not given)
inactive: MOLT-4 27.7 µM | HOP-92 > 100 µM | HT-29 42.5 µM | UACC-62 21.1 µM | NCI-H522 > 100 µM | TK-10 90.8 µM | LOX IMVI 24.5 µM | CCRF-CEM 7.26 µM | OVCAR-4 > 100 µM | COLO 205 64.9 µM | HOP-62 44 µM | 786-0 36.4 µM | SF-268 73.8 µM | UO-31 71.4 µM | SF-295 53 µM | EKVX 44.3 µM | SR 4.82 µM | SK-MEL-28 > 100 µM | M14 20.6 µM
